# Patent publication US9730938B2, “Bruton's tyrosine kinase inhibitor combinations and uses thereof” (Pharmacyclics LLC, priority 2014, dated 2017)
# How the values were obtained:
# OCI-LY-10 [1] = assay: Combined drug treatment cell viability, CellTiter-Glo assay (Example 1); type: cell-based; conditions: IDH1i 10 uM / MALT1i 5 uM / medium alone, 3 days
# Experimental: (§1) DLBCL cells at either 1×10^4 cells or 2×10^4 cells were plated onto each well of a 96-W plate (Table 1).
# (§2) The stock solutions for the IDH1 inhibitor AGI5198 and the MALT1 inhibitor MI-2 were each prepared at 50 mM concentration.
# (§3) The 96-W plate was then incubated for 3 days. Cell viability was examined using a CellTiter-Glo assay.
# (§4) A 40 μL of CellTiter-Glo reagent was added directly into each well of the 96-W plate. The plate was then shaken on a Shaker (Labsystem Wellmix) at speed 5 for 10-20 min at room temperature. Next, 100 μL of the mixed medium was transferred to a white, non-transparent, flat bottom 96-W plate for assaying. A Flexstation 3 luminometer was used for detecting and measuring the luminescent signals. Measurements were taken at room temperature.
# (§5) In general, the combination is described as synergistic (CI<1), additive (CI=1), or antagonistic (CI>1). Synergism is further separated into very strong synergism (<0.1), strong synergism (0.1-0.3), synergism (0.3-0.7), moderate synergism (0.7-0.85), and slight synergism (0.85-0.9).
# OCI-LY-3 [2] = assay: as above; type: cell-based; conditions: IDH1i 10 uM / MALT1i 5 uM / medium alone, 3 days
# Experimental: as §1, §2, §3, §4, §5
# SU-DHL-2 [3] = assay: as above; type: cell-based; conditions: IDH1i 10 uM / MALT1i 200 nM / medium alone, 3 days
# Experimental: as §1, §2, §3, §4, §5
# TMD8 [4] = assay: as above; type: cell-based; conditions: IDH1i 10 uM / MALT1i 100 nM / medium alone, 3 days
# Experimental: as §1, §2, §3, §4, §5
# U2932 [5] = assay: as above; type: cell-based; conditions: IDH1i 10 uM / MALT1i 200 nM / medium alone, 3 days
# Experimental: as §1, §2, §3, §4, §5
# TMD8 [6] = assay: Combined drug treatment cell viability, CellTiter-Glo assay (Example 2); type: cell-based; conditions: JAK3 10 μM / MCL-1 3 μM / medium alone, 3 days
# OCI-LY-10 [7] = assay: as above; type: cell-based; conditions: JAK3 10 μM / MCL-1 3 μM / medium alone, 3 days
# OCI-LY-3 [8] = assay: as above; type: cell-based; conditions: JAK3 10 μM / MCL-1 3 μM / medium alone, 3 days
# HBL-1 = assay: as above; type: cell-based; conditions: JAK3 10 μM / MCL-1 3 μM / medium alone, 3 days
# U2932 [9] = assay: as above; type: cell-based; conditions: JAK3 10 μM / MCL-1 3 μM / medium alone, 3 days
# SU-DHL-2 [10] = assay: as above; type: cell-based; conditions: JAK3 10 μM / MCL-1 3 μM / medium alone, 3 days
# [11] = system: TMD8 cells expressing PIM1-WT; assay: Cell growth of modified TMD8 cells treated with ibrutinib; conditions: Homo sapiens
# [12] = system: TMD8 cells expressing PIM1 L2V; assay: as above; conditions: Homo sapiens
# [13] = system: TMD8 cells expressing PIM1 P81S; assay: as above; conditions: Homo sapiens
# [14] = system: TMD8 cells expressing PIM1 S97N; assay: as above; conditions: Homo sapiens
compound,measurement,setting,value
"C=CC(=O)N1CCC[C@@H](n2nc(-c3ccc(Oc4ccccc4)cc3)c3c(N)ncnc32)C1 [ibrutinib, 1-((R)-3-(4-amino-3-(4-phenoxyphenyl)-1H-pyrazolo[3,4-d]pyrimidin-1-yl)piperidin-1-yl)prop-2-en-1-one]",luminescence (CellTiter-Glo),OCI-LY-10 [1]; ibrutinib 0.0256 nM,61548.88
same,luminescence (CellTiter-Glo),OCI-LY-10 [1]; ibrutinib 0.128 nM,68196.56
same,luminescence (CellTiter-Glo),OCI-LY-10 [1]; ibrutinib 0.64 nM,63983.91
same,luminescence (CellTiter-Glo),OCI-LY-10 [1]; ibrutinib 3.2 nM,51190.81
same,luminescence (CellTiter-Glo),OCI-LY-10 [1]; ibrutinib 16 nM,27324.38
same,luminescence (CellTiter-Glo),OCI-LY-10 [1]; ibrutinib 80 nM,23511.43
same,luminescence (CellTiter-Glo),OCI-LY-10 [1]; ibrutinib 400 nM,23784.91
same,luminescence (CellTiter-Glo),OCI-LY-10 [1]; ibrutinib 2000 nM,24452.84
same,luminescence (CellTiter-Glo),OCI-LY-10 [1]; ibrutinib 10000 nM,24826.24
same,luminescence (CellTiter-Glo),OCI-LY-3 [2]; ibrutinib 0.0256 nM,63957.70
same,luminescence (CellTiter-Glo),OCI-LY-3 [2]; ibrutinib 0.128 nM,59441.78
same,luminescence (CellTiter-Glo),OCI-LY-3 [2]; ibrutinib 0.64 nM,63322.70
same,luminescence (CellTiter-Glo),OCI-LY-3 [2]; ibrutinib 3.2 nM,66789.02
same,luminescence (CellTiter-Glo),OCI-LY-3 [2]; ibrutinib 16 nM,64655.70
same,luminescence (CellTiter-Glo),OCI-LY-3 [2]; ibrutinib 80 nM,68972.20
same,luminescence (CellTiter-Glo),OCI-LY-3 [2]; ibrutinib 400 nM,64472.02
same,luminescence (CellTiter-Glo),OCI-LY-3 [2]; ibrutinib 2000 nM,55749.79
same,luminescence (CellTiter-Glo),OCI-LY-3 [2]; ibrutinib 10000 nM,63477.51
same,luminescence (CellTiter-Glo),SU-DHL-2 [3]; ibrutinib 0.0256 nM,141202.0
same,luminescence (CellTiter-Glo),SU-DHL-2 [3]; ibrutinib 0.128 nM,146159.1
same,luminescence (CellTiter-Glo),SU-DHL-2 [3]; ibrutinib 0.64 nM,159399.0
same,luminescence (CellTiter-Glo),SU-DHL-2 [3]; ibrutinib 3.2 nM,161613.5
same,luminescence (CellTiter-Glo),SU-DHL-2 [3]; ibrutinib 16 nM,155353.5
same,luminescence (CellTiter-Glo),SU-DHL-2 [3]; ibrutinib 80 nM,164140.7
same,luminescence (CellTiter-Glo),SU-DHL-2 [3]; ibrutinib 400 nM,159908.6
same,luminescence (CellTiter-Glo),SU-DHL-2 [3]; ibrutinib 2000 nM,154426.1
same,luminescence (CellTiter-Glo),SU-DHL-2 [3]; ibrutinib 10000 nM,111485.8
same,luminescence (CellTiter-Glo),TMD8 [4]; ibrutinib 0.0256 nM,32496.06
same,luminescence (CellTiter-Glo),TMD8 [4]; ibrutinib 0.128 nM,32828.16
same,luminescence (CellTiter-Glo),TMD8 [4]; ibrutinib 0.64 nM,29180.29
same,luminescence (CellTiter-Glo),TMD8 [4]; ibrutinib 3.2 nM,31383.77
same,luminescence (CellTiter-Glo),TMD8 [4]; ibrutinib 16 nM,27190.31
same,luminescence (CellTiter-Glo),TMD8 [4]; ibrutinib 80 nM,28263.05
same,luminescence (CellTiter-Glo),TMD8 [4]; ibrutinib 400 nM,25674.76
same,luminescence (CellTiter-Glo),TMD8 [4]; ibrutinib 2000 nM,23421.20
same,luminescence (CellTiter-Glo),TMD8 [4]; ibrutinib 10000 nM,10819.72
same,luminescence (CellTiter-Glo),U2932 [5]; ibrutinib 0.0256 nM,63123.80
same,luminescence (CellTiter-Glo),U2932 [5]; ibrutinib 0.128 nM,57150.28
same,luminescence (CellTiter-Glo),U2932 [5]; ibrutinib 0.64 nM,53722.16
same,luminescence (CellTiter-Glo),U2932 [5]; ibrutinib 3.2 nM,53031.79
same,luminescence (CellTiter-Glo),U2932 [5]; ibrutinib 16 nM,51023.93
same,luminescence (CellTiter-Glo),U2932 [5]; ibrutinib 80 nM,49777.58
same,luminescence (CellTiter-Glo),U2932 [5]; ibrutinib 400 nM,46009.54
same,luminescence (CellTiter-Glo),U2932 [5]; ibrutinib 2000 nM,46858.01
same,luminescence (CellTiter-Glo),U2932 [5]; ibrutinib 10000 nM,37935.94
same,luminescence (CellTiter-Glo),TMD8 [6]; ibrutinib 0.0512 nM,28324.66
same,luminescence (CellTiter-Glo),TMD8 [6]; ibrutinib 0.256 nM,28516.97
same,luminescence (CellTiter-Glo),TMD8 [6]; ibrutinib 1.28 nM,28727.97
same,luminescence (CellTiter-Glo),TMD8 [6]; ibrutinib 6.4 nM,28578.40
same,luminescence (CellTiter-Glo),TMD8 [6]; ibrutinib 32 nM,28802.75
same,luminescence (CellTiter-Glo),TMD8 [6]; ibrutinib 160 nM,29096.55
same,luminescence (CellTiter-Glo),TMD8 [6]; ibrutinib 800 nM,25963.61
same,luminescence (CellTiter-Glo),TMD8 [6]; ibrutinib 20000 nM,5261.63
same,luminescence (CellTiter-Glo),TMD8 [6]; ibrutinib 40000 nM,22488.80
same,luminescence (CellTiter-Glo),OCI-LY-10 [7]; ibrutinib 0.0512 nM,46968.14
same,luminescence (CellTiter-Glo),OCI-LY-10 [7]; ibrutinib 1.28 nM,28222.33
same,luminescence (CellTiter-Glo),OCI-LY-10 [7]; ibrutinib 6.4 nM,17144.41
same,luminescence (CellTiter-Glo),OCI-LY-10 [7]; ibrutinib 32 nM,14003.51
same,luminescence (CellTiter-Glo),OCI-LY-10 [7]; ibrutinib 160 nM,13712.84
same,luminescence (CellTiter-Glo),OCI-LY-10 [7]; ibrutinib 800 nM,14708.66
same,luminescence (CellTiter-Glo),OCI-LY-10 [7]; ibrutinib 20000 nM,14261.89
same,luminescence (CellTiter-Glo),OCI-LY-10 [7]; ibrutinib 40000 nM,15817.53
same,luminescence (CellTiter-Glo),OCI-LY-3 [8]; ibrutinib 0.0512 nM,80095.49
same,luminescence (CellTiter-Glo),OCI-LY-3 [8]; ibrutinib 0.256 nM,81910.97
same,luminescence (CellTiter-Glo),OCI-LY-3 [8]; ibrutinib 1.28 nM,89730.66
same,luminescence (CellTiter-Glo),OCI-LY-3 [8]; ibrutinib 6.4 nM,81709.84
same,luminescence (CellTiter-Glo),OCI-LY-3 [8]; ibrutinib 32 nM,80596.96
same,luminescence (CellTiter-Glo),OCI-LY-3 [8]; ibrutinib 160 nM,84190.37
same,luminescence (CellTiter-Glo),OCI-LY-3 [8]; ibrutinib 800 nM,82227.41
same,luminescence (CellTiter-Glo),OCI-LY-3 [8]; ibrutinib 20000 nM,69084.64
same,luminescence (CellTiter-Glo),OCI-LY-3 [8]; ibrutinib 40000 nM,75112.98
same,luminescence (CellTiter-Glo),HBL-1; ibrutinib 0.0512 nM,46288.31
same,luminescence (CellTiter-Glo),HBL-1; ibrutinib 0.256 nM,42826.48
same,luminescence (CellTiter-Glo),HBL-1; ibrutinib 1.28 nM,43461.99
same,luminescence (CellTiter-Glo),HBL-1; ibrutinib 6.4 nM,38857.83
same,luminescence (CellTiter-Glo),HBL-1; ibrutinib 32 nM,35516.66
same,luminescence (CellTiter-Glo),HBL-1; ibrutinib 160 nM,35090.31
same,luminescence (CellTiter-Glo),HBL-1; ibrutinib 800 nM,35103.71
same,luminescence (CellTiter-Glo),HBL-1; ibrutinib 20000 nM,16831.87
same,luminescence (CellTiter-Glo),HBL-1; ibrutinib 40000 nM,36806.47
same,luminescence (CellTiter-Glo),U2932 [9]; ibrutinib 0.0512 nM,62396.81
same,luminescence (CellTiter-Glo),U2932 [9]; ibrutinib 0.256 nM,60528.12
same,luminescence (CellTiter-Glo),U2932 [9]; ibrutinib 1.28 nM,60811.50
same,luminescence (CellTiter-Glo),U2932 [9]; ibrutinib 6.4 nM,58640.71
same,luminescence (CellTiter-Glo),U2932 [9]; ibrutinib 32 nM,57009.94
same,luminescence (CellTiter-Glo),U2932 [9]; ibrutinib 160 nM,55090.45
same,luminescence (CellTiter-Glo),U2932 [9]; ibrutinib 800 nM,54579.83
same,luminescence (CellTiter-Glo),U2932 [9]; ibrutinib 20000 nM,18900.83
same,luminescence (CellTiter-Glo),U2932 [9]; ibrutinib 40000 nM,55951.28
same,luminescence (CellTiter-Glo),SU-DHL-2 [10]; ibrutinib 0.0512 nM,168606.0
same,luminescence (CellTiter-Glo),SU-DHL-2 [10]; ibrutinib 0.256 nM,180865.8
same,luminescence (CellTiter-Glo),SU-DHL-2 [10]; ibrutinib 1.28 nM,185508.3
same,luminescence (CellTiter-Glo),SU-DHL-2 [10]; ibrutinib 6.4 nM,178437.4
same,luminescence (CellTiter-Glo),SU-DHL-2 [10]; ibrutinib 32 nM,180464.1
same,luminescence (CellTiter-Glo),SU-DHL-2 [10]; ibrutinib 160 nM,183505.7
same,luminescence (CellTiter-Glo),SU-DHL-2 [10]; ibrutinib 800 nM,181165.6
same,luminescence (CellTiter-Glo),SU-DHL-2 [10]; ibrutinib 20000 nM,4650.6
same,luminescence (CellTiter-Glo),SU-DHL-2 [10]; ibrutinib 40000 nM,180616.8
same,EC50,[11],76 nM
same,EC50,[12],> 1000 nM
same,EC50,[13],> 1000 nM
same,EC50,[14],> 1000 nM
